Experimental data reported in patent US20210276977A1, “BICYCLIC INHIBITORS OF HISTONE DEACETYLASE” (Alkermes, Inc., priority 2018, published 2021).

Assays:
HDAC2 = target: T1, HDAC2 (Homo sapiens, UniProt Q92769); assay: HDAC2 Enzymatic Inhibition Assay in SH-SY5Y Cell Lysate with an Exogenous Substrate (HDAC-Glo 2); format: cell-based; conditions: SH-SY5Y cells
T1 construct: host or cells: SH-SY5Y cells
Description: HDAC2 Enzymatic Inhibition Assay in SH-SY5Y Cell Lysate with an Exogenous Substrate
SH-SY5Y cells (Sigma) were cultured in Eagle's Modified Essential Medium supplemented with 10% fetal bovine serum and pen/strep. Twenty-four hours prior to compound dosing 20 uL of cells were plated in white 384 well plates at a density of 1,500 cells/well. Compounds were serially diluted in neat DMSO and then diluted 1:100 v/v into media without FBS and mixed. Media was removed from the plated cells and the diluted compounds in serum free media (1% v/v final DMSO) were added and incubated at 37° C. for five hours. Ten uL of HDAC-Glo 2 reagent with 0.1% Triton X-100 was then added, the plate was mixed and allowed to develop at room temperature for 100 minutes. Plates were then read with a Spectramax LMax luminometer employing a 0.4 s integration time. Dose response curves were constructed with normalized data where CI-994 at 100 uM was defined as 100% inhibition and DMSO alone as 0% inhibition.
(§1) In the table, “A” indicates a IC50 value of less than 0.5 μM; “B” a IC50 value from 0.5 μM to 1.0 μM; “C” a IC50 value of greater than 1.0 μM and less than or equal to 2.0 μM; and “D” indicates an IC50 value of greater than 2.0 μM. NT=Not Tested.

Full length Human HDAC2 = target: T2, Full length Human HDAC2 (Homo sapiens, UniProt Q92769); assay: HDAC2 enzymatic assay (deacetylation of FAM-labeled peptide substrate, microfluidic electrophoresis); format: biochemical; conditions: recombinant enzymatic assay
T2 construct: Full length Human HDAC2; FLAG (C); host or cells: baculovirus expression system
Description: (§2) HDAC2 and HDAC1 Enzymatic Assay (HDAC2 and HDAC1 IC50 Data)
(§3) The following describes an assay protocol for measuring the deacetylation of a peptide substrate by HDAC2 or HDAC1.
(§4) HD AC protein composition and respective substrate peptides are summarized below.
(§5) HD AC reactions are assembled in 384 well plates (Greiner) in a total volume of 20 μL as following:
(§6) HDAC proteins are pre-diluted in the assay buffer comprising: 100 mM HEPES, pH 7.5, 0.1% BSA, 0.01% Triton X-100, 25 mM KCl and dispensed into 384 well plate (10 uL per well).
(§7) Test compounds are serially pre-diluted in DMSO and added to the protein samples by acoustic dispensing (Labcyte Echo). Concentration of DMSO is equalized to 1% in all samples.
(§8) Control samples (0%-inhibition in the absence of inhibitor, DMSO only) and 100%-inhibition (in the absence of enzyme) are assembled in replicates of four and used to calculate the %-inhibition in the presence of compounds.
(§9) At this step compounds can be pre-incubated with enzyme if desired.
(§10) The reactions are initiated by addition of 10 uL of the FAM-labeled substrate peptide pre-diluted in the same assay buffer. Final concentration of substrate peptide is 1 uM (HDAC1-2).
(§11) The reactions are allowed to proceed at room temperature. Following incubation, the reactions are quenched by addition of 50 μL of termination buffer (100 mM HEPES, pH7.5, 0.01% Triton X-100, 0.1% SDS). Terminated plates are analyzed on a microfluidic electrophoresis instrument (Caliper LabChip® 3000, Caliper Life Sciences/Perkin Elmer) which enables electrophoretic separation of de-acetylated product from acetylated substrate. A change in the relative intensity of the peptide substrate and product is the parameter measured. Activity in each test sample is determined as the product to sum ratio (PSR): P/(S+P), where P is the peak height of the product, and S is the peak height of the substrate. Percent inhibition (Pinh) is determined using the following equation: Pinh=(PSR0% inh−PSRcompound)/(PSR0% inh−PSR100% inh)*100, in which: PSRcompound is the product/sum ratio in the presence of compound, PSR0% inh is the product/sum ratio in the absence of compound and the PSR100% inh is the product/sum ratio in the absence of the enzyme. To determine IC50 of compounds (50%-inhibition) the %-inh data (Pinh versus compound concentration) are fit by a 4 parameter sigmoid dose-response model using XLfit software (IDBS).
as §1

Full length Human HDAC1 = target: T3, Full length Human HDAC1 (Homo sapiens, UniProt Q13547); assay: HDAC1 enzymatic assay (deacetylation of FAM-labeled peptide substrate, microfluidic electrophoresis); format: biochemical; conditions: recombinant enzymatic assay
T3 construct: Full length Human HDAC1; His (C); FLAG (C); host or cells: baculovirus expression system
Description: as §2, §3, §4, §5, §6, §7, §8, §9, §10, §11, §1

[1] = five hours incubation, Table 3, class symbols

T1 sequence (Q92769 whole entry): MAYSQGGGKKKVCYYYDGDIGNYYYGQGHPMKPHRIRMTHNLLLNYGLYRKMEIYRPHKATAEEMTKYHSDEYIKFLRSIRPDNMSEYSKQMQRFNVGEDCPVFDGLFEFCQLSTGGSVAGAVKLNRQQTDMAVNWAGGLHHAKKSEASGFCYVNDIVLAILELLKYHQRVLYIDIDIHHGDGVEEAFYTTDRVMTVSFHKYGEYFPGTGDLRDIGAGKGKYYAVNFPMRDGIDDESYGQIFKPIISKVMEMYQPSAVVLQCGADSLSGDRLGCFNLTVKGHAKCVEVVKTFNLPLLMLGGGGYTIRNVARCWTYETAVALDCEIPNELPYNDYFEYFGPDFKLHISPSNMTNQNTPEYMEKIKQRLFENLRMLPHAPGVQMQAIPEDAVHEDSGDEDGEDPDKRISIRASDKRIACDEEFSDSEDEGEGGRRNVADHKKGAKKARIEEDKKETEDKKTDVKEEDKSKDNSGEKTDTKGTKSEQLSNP
T2 sequence (Q92769 whole entry): as above
T3 sequence (Q13547 whole entry): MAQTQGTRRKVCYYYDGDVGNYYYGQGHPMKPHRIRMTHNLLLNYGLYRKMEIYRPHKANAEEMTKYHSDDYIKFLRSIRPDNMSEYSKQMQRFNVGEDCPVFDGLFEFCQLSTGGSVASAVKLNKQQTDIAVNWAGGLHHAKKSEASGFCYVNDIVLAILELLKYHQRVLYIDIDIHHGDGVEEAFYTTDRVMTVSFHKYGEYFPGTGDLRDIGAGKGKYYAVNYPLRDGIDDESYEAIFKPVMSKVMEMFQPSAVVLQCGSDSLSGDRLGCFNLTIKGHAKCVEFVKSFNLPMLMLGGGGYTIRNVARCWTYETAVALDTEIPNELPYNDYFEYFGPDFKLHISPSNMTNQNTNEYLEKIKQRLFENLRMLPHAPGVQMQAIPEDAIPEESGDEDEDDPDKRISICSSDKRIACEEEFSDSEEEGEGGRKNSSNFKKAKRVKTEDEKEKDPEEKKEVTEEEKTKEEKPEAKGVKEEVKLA

| SMILES | IC50 (HDAC2; [1]) [µM] | IC50 (Full length Human HDAC2; Table 2, class symbols) [µM] | IC50 (Full length Human HDAC1; Table 2, class symbols) [µM] | IC50 (HDAC2; Table 4, numeric) [µM] | IC50 (Full length Human HDAC2; Table 4, numeric) [µM] | IC50 (Full length Human HDAC1; Table 4, numeric) [µM] | IC50 (Full length Human HDAC2; Table 2, numeric value) [µM] | IC50 (Full length Human HDAC1; Table 2, numeric value) [µM] |
| --- | --- | --- | --- | --- | --- | --- | --- | --- |
| Nc1ccc(-c2ccc(F)cc2F)nc1NC(=O)N1CC(c2ncccn2)C1 [Comparator A, reference compound] | – | – | – | > 52 | 5.29 | 4.58 | – | – |
| Nc1ccc(-c2ccc(F)cc2)nc1NC(=O)N1CC(Cc2cnc(C(F)(F)F)nc2)C1 [Compound 78] | > 2 | > 2 | > 2 | – | – | – | – | – |
| CC(F)(F)c1cnc(CC2CN(C(=O)Nc3nc(-c4ccc(F)cc4)ccc3N)C2)nc1 [Compound 81] | > 2 | 0.5 to 1 | < 0.5 | – | – | – | – | – |
| Nc1ccc(-c2ccc(F)cc2F)nc1NC(=O)N1CC(CCc2ccccn2)C1 [Compound 43] | > 2 | > 2 | 0.5 to 1 | – | – | – | – | – |
| Nc1ccc(-c2ccc(F)cc2F)nc1NC(=O)N1CC(Cn2ccnc2)C1 [Compound 31] | > 2 | > 2 | > 2 | – | – | – | – | – |
| Nc1ccc(-c2ccc(F)cc2)nc1NC(=O)N1CC(Cc2ncc(C(F)(F)F)cn2)C1 [Compound 84] | > 2 | – | – | – | – | – | 1.19 | 0.346 |
| Cc1nccc(CC2CN(C(=O)Nc3nc(-c4ccc(F)cc4F)ccc3N)C2)n1 [Compound 15] | > 2 | > 2 | > 2 | – | – | – | – | – |
| Cc1ccnc(CC2CN(C(=O)Nc3nc(-c4ccc(F)cc4)ccc3N)C2)n1 [Compound 72] | 1 to 2 | 0.5 to 1 | < 0.5 | – | – | – | – | – |
| Nc1ccc(-c2ccc(F)cc2F)nc1NC(=O)N1CC(Cc2ccccn2)C1 [Compound 2] | 1 to 2 | 0.5 to 1 | < 0.5 | – | – | – | – | – |
| Nc1ccc(-c2ccc(F)cc2F)nc1NC(=O)N1CC(Cc2cccnc2)C1 [Compound 3] | 1 to 2 | 1 to 2 | 0.5 to 1 | – | – | – | – | – |
| Nc1ccc(-c2cccs2)nc1NC(=O)N1CC(Cc2ncc(F)cn2)C1 [Compound 69] | 1 to 2 | 1 to 2 | < 0.5 | – | – | – | – | – |
| Nc1ccc(-c2ccccc2F)nc1NC(=O)N1CC(Cc2ncc(F)cn2)C1 [Compound 26] | 1 to 2 | 0.5 to 1 | 0.5 to 1 | – | – | – | – | – |
| COCc1cnc(CC2CN(C(=O)Nc3nc(-c4ccc(F)cc4)ccc3N)C2)nc1 [Compound 82] | 1 to 2 | 0.5 to 1 | < 0.5 | – | – | – | – | – |
| Nc1ccc(-c2cccs2)nc1NC(=O)N1CC(C(F)(F)c2ncccn2)C1 [Compound 70] | 1 to 2 | 0.5 to 1 | < 0.5 | – | – | – | – | – |
| Cn1ccnc1CC1(F)CN(C(=O)Nc2nc(-c3ccc(F)cc3)ccc2N)C1 [Compound 86] | 1 to 2 | > 2 | 1 to 2 | – | – | – | – | – |
| Nc1ccc(-c2ccc(F)cc2)nc1NC(=O)N1CC(Cc2ccccn2)C1 [Compound 74] | 1 to 2 | 0.5 to 1 | < 0.5 | – | – | – | – | – |
| Nc1ccc(-c2ccc(F)cc2F)nc1NC(=O)N1CC(Oc2ncccn2)C1 [Compound 59] | > 2 | 0.5 to 1 | < 0.5 | – | – | – | – | – |
| Nc1ccc(-c2ccc(F)cc2F)nc1NC(=O)N1CC(Cc2nnc(C(F)(F)F)s2)C1 [Compound 46] | > 2 | 1 to 2 | 1 to 2 | – | – | – | – | – |
| Cc1ccc(CC2CN(C(=O)Nc3nc(-c4ccc(F)cc4F)ccc3N)C2)cn1 [Compound 5] | > 2 | 1 to 2 | 1 to 2 | – | – | – | – | – |
| Nc1ccc(-c2ccc(F)cc2F)nc1NC(=O)N1CC(CCc2ncccn2)C1 [Compound 44] | > 2 | > 2 | > 2 | – | – | – | – | – |
| Cn1ccnc1CC1CN(C(=O)Nc2nc(-c3ccc(F)cc3F)ccc2N)C1 [Compound 47] | 1 to 2 | 1 to 2 | 0.5 to 1 | – | – | – | – | – |
| Cc1ncc(C2CN(C(=O)Nc3nc(-c4ccc(F)cc4F)ccc3N)C2)cn1 [Comparator B, reference compound] | – | – | – | 30 | > 30 | > 30 | – | – |

Continued, values first:

| IC50 (HDAC2; [1]) [µM] | IC50 (Full length Human HDAC2; Table 2, class symbols) [µM] | IC50 (Full length Human HDAC1; Table 2, class symbols) [µM] | IC50 (HDAC2; Table 4, numeric) [µM] | IC50 (Full length Human HDAC2; Table 4, numeric) [µM] | IC50 (Full length Human HDAC1; Table 4, numeric) [µM] | IC50 (Full length Human HDAC2; Table 2, numeric value) [µM] | IC50 (Full length Human HDAC1; Table 2, numeric value) [µM] | SMILES |
| --- | --- | --- | --- | --- | --- | --- | --- | --- |
| 0.5 to 1 | 1 to 2 | < 0.5 | – | – | – | – | – | Nc1ccc(-c2ccc(F)cc2)nc1NC(=O)N1CC(Cc2ncccn2)C1 [Compound 64] |
| 1 to 2 | > 2 | > 2 | – | – | – | – | – | Nc1ccc(-c2ccc(F)cc2F)nc1NC(=O)N1CC(Cc2ccncc2)C1 [Compound 4] |
| 0.5 to 1 | 0.5 to 1 | 0.5 to 1 | – | – | – | – | – | Nc1ccc(-c2ccc(F)cc2F)nc1NC(=O)N1CC(Cc2ncco2)C1 [Compound 22] |
| 0.5 to 1 | 1 to 2 | 1 to 2 | – | – | – | – | – | Cc1cc(CC2CN(C(=O)Nc3nc(-c4ccc(F)cc4F)ccc3N)C2)ncn1 [Compound 19] |
| 0.5 to 1 | 1 to 2 | < 0.5 | – | – | – | – | – | Nc1ccc(-c2cccs2)nc1NC(=O)N1CC(Cc2ncccn2)C1 [Compound 68] |
| 0.5 to 1 | 0.5 to 1 | 1 to 2 | – | – | – | – | – | Nc1ccc(-c2ccc(F)cc2F)nc1NC(=O)N1CC(Cc2cccnn2)C1 [Compound 23] |
| 1 to 2 | 0.5 to 1 | < 0.5 | – | – | – | – | – | Nc1ccc(-c2ccc(F)s2)nc1NC(=O)N1CC(Cc2ncccn2)C1 [Compound 66] |
| 1 to 2 | > 2 | > 2 | 1.56 | 2.8 | 2.26 | – | – | Cc1ncc(CC2CN(C(=O)Nc3nc(-c4ccc(F)cc4F)ccc3N)C2)cn1 [Compound 6] |
| 0.5 to 1 | 0.5 to 1 | < 0.5 | 0.687 | 0.583 | 0.406 | – | – | Cc1cnc(CC2CN(C(=O)Nc3nc(-c4ccc(F)cc4F)ccc3N)C2)cn1 [Compound 14] |
| 0.5 to 1 | < 0.5 | < 0.5 | – | – | – | – | – | Nc1ccc(-c2ccc(F)cc2)nc1NC(=O)N1CC(Cc2ncc(F)cn2)C1 [Compound 27] |
| 1 to 2 | > 2 | > 2 | – | – | – | – | – | Cc1cnc(CC2CN(C(=O)Nc3nc(-c4ccc(F)cc4F)ccc3N)C2)nc1 [Compound 7] |
| 0.5 to 1 | 0.5 to 1 | < 0.5 | – | – | – | – | – | Nc1ccc(-c2ccc(F)cc2F)nc1NC(=O)N1CC(Cc2ncc(F)cn2)C1 [Compound 21] |
| 0.5 to 1 | 0.5 to 1 | 0.5 to 1 | – | – | – | – | – | Cc1ccnc(CC2CN(C(=O)Nc3nc(-c4ccc(F)cc4F)ccc3N)C2)n1 [Compound 11] |
| 0.5 to 1 | 0.5 to 1 | < 0.5 | – | – | – | – | – | Cc1cnc(CC2CN(C(=O)Nc3nc(-c4ccc(F)cc4)ccc3N)C2)nc1 [Compound 65] |
| 0.5 to 1 | 1 to 2 | 0.5 to 1 | – | – | – | – | – | Cc1nnc(CC2CN(C(=O)Nc3nc(-c4ccc(F)cc4F)ccc3N)C2)s1 [Compound 45] |
| < 0.5 | 1 to 2 | 0.5 to 1 | – | – | – | – | – | Cc1ccc(CC2CN(C(=O)Nc3nc(-c4ccc(F)cc4F)ccc3N)C2)nn1 [Compound 24] |
| 0.5 to 1 | 0.5 to 1 | 1 to 2 | – | – | – | – | – | Nc1ccc(-c2ccccc2F)nc1NC(=O)N1CC(C(F)(F)c2ncccn2)C1 [Compound 35] |
| 0.5 to 1 | > 2 | 0.5 to 1 | – | – | – | – | – | Cn1ccnc1CC1CN(C(=O)Nc2nc(-c3ccc(F)cc3)ccc2N)C1 [Compound 71] |
| < 0.5 | 1 to 2 | 0.5 to 1 | – | – | – | – | – | CC(c1ncccn1)C1CN(C(=O)Nc2nc(-c3ccc(F)cc3F)ccc2N)C1 (stereo not drawn) [Compound 42] |
